Reference: PMC3969094 (Journal of Medicinal Chemistry, 2014)
pKd: −log10 of the molar value. Positions of bridges follow the written chain, without caps; N, C: chain ends. Non-standard residues stand in square brackets, D forms with d. Residues, ends and D or L forms follow the SMILES beside them. *: point of attachment. FITC = O=C1OC2(c3ccc(O)cc3Oc3cc(O)ccc32)c2ccc(NC(=S)*)cc21; Phe(3,4-Cl2) = N[C@@H](Cc1ccc(Cl)c(Cl)c1)C(=O)O; S5 = C=CCCC[C@](C)(N)C(=O)O; Ahx = NCCCCCC(=O)O

Tests used:
RPA70N = RPA70N (Homo sapiens, UniProt P27694); assay: FPA direct binding of FITC-labeled peptides; details: stapled peptides, versus phenylalanine counterparts
RPA70C/32D/14 = assay: Direct binding FPA assay, selectivity; details: read-out: Kd for RPA70C/32D/14, FITC-labeled stapled peptide

In the case of `CC(C)C[C@H](NC(=O)[C@H](C)NC(=O)[C@H](Cc1ccc(Cl)c(Cl)c1)NC(=O)[C@H](Cc1c[nH]c2ccccc12)NC(=O)[C@]1(C)CCCC=CCCC[C@](C)(NC(=O)[C@H](C)NC(=O)[C@@H](NC(=O)[C@H](Cc2ccccc2)NC(=O)[C@H](CC(N)=O)NC(=O)CCCCCNC(=S)Nc2ccc3c(c2)C(=O)OC32c3ccc(O)cc3Oc3cc(O)ccc32)[C@@H](C)O)C(=O)N[C@@H](CC(=O)O)C(=O)N[C@@H](CC(C)C)C(=O)N[C@@H](CCC(=O)O)C(=O)N1)C(N)=O` [Peptide-38] ({FITC-Ahx}-NFTA[S5]DLE[S5]W[Phe(3,4-Cl2)]AL-NH2; staple 5-9), the “increase in affinity by dichlorophenylalanine substitution” value (RPA70N) was 31 fold.

`CC(C)C[C@H](NC(=O)[C@H](C)NC(=O)[C@H](Cc1ccc(Cl)c(Cl)c1)NC(=O)[C@H](Cc1c[nH]c2ccccc12)NC(=O)[C@]1(C)CCCC=CCCC[C@](C)(NC(=O)[C@H](C)NC(=O)[C@@H](NC(=O)[C@H](Cc2ccccc2)NC(=O)[C@H](CC(N)=O)NC(=O)CCCCCNC(=S)Nc2ccc3c(c2)C(=O)OC32c3ccc(O)cc3Oc3cc(O)ccc32)[C@@H](C)O)C(=O)N[C@@H](CC(N)=O)C(=O)N[C@@H](CC(C)C)C(=O)N[C@@H](CCC(=O)O)C(=O)N1)C(N)=O` [Peptide-39] ({FITC-Ahx}-NFTA[S5]NLE[S5]W[Phe(3,4-Cl2)]AL-NH2; staple 5-9) was tested, and the “increase in affinity by dichlorophenylalanine substitution” value (RPA70N) was 175 fold and the pKd (RPA70C/32D/14) was 5.62.
